These results are taken from patent publication US9593108B2, “Compounds and methods for antiviral treatment” (PTC Therapeutics, Inc., priority 2009, dated 2017).

As a reminder, the IC50 is the concentration needed to halve the response being measured. A word on the melting point: it is the temperature, or range, at which the solid turns liquid.

Data set [1] deals with HCV replicon RNA (GenBank Accession No. AJ242654). The data set is described as follows: HCV Replicon Assay (replicon RNA reduction and/or Fluc reporter signal). The data set is classed as cell-based, Hepatitis C virus. The settings on record: Hepatitis C virus, 72 h, replicon-containing cells cultured with test compound for up to 3 days. In outline: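 IC50 values mostly reflect the drop in replicon RNA, though Fluc reporter signal may also be used. Compound incubated with cells carrying the bicistronic replicon for as long as 3 days; interferon served as positive control.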

Some results are limits rather than exact numbers.

Turning to `Cc1cnc2c(c1)c(C#N)c(-c1ccc(S(=O)(=O)N[C@@H](C)C(F)(F)F)cn1)n2-c1ncc(Br)cn1` [Cpd 435, 6-[1-(5-bromopyrimidin-2-yl)-3-cyano-5-methyl-1H-pyrrolo[2,3-b]pyridin-2-yl]-N-[(2S)-1,1,1-trifluoropropan-2-yl]pyridine-3-sulfonamide], the melting point fell in the range of 169 to 171 °C. In data set [1], this compound gave an IC50 of 500 to 2000 nM.

Regarding `Cc1cnc2c(c1)c(C#N)c(-c1ccc(S(=O)(=O)N[C@@H](C)C(F)(F)F)cn1)n2-c1ccnnc1` [Cpd 436, 6-[3-cyano-5-methyl-1-(pyridazin-4-yl)-1H-pyrrolo[2,3-b]pyridin-2-yl]-N-[(2S)-1,1,1-trifluoropropan-2-yl]pyridine-3-sulfonamide], the melting point lay within 196 to 198 °C. Besides, the IC50 in data set [1] is less than 500 nM.

Consider `C[C@H](NS(=O)(=O)c1ccc(-c2c(C(N)=O)c3cc(C(F)(F)F)cnc3n2C2CCCCC2)cc1)C(F)(F)F` [Cpd 437, 1-cyclohexyl-5-(trifluoromethyl)-2-(4-{[(2S)-1,1,1-trifluoropropan-2-yl]sulfamoyl}phenyl)-1H-pyrrolo[2,3-b]pyridine-3-carboxamide], for which the melting point fell in the range of 291 to 293 °C. Also, the IC50 in data set [1] is less than 500 nM.

As for `CC(C)(NS(=O)(=O)c1ccc(-c2c(C(N)=O)c3cc(C(F)(F)F)cnc3n2C2CCCCC2)nc1)C(F)(F)F` [Cpd 438, 1-cyclohexyl-5-(trifluoromethyl)-2-{5-[(1,1,1-trifluoro-2-methylpropan-2-yl)sulfamoyl]pyridin-2-yl}-1H-pyrrolo[2,3-b]pyridine-3-carboxamide], the melting point is 250 to 252 °C. The compound also showed a 50% inhibitory concentration (IC50) in data set [1] of less than 500 nM.

For the compound `CC(C)(NS(=O)(=O)c1ccc(-c2c(C(N)=O)c3cc(C(F)(F)F)cnc3n2C2CCCCC2)cc1)C(F)(F)F` [Cpd 439, 1-cyclohexyl-5-(trifluoromethyl)-2-{4-[(1,1,1-trifluoro-2-methylpropan-2-yl)sulfamoyl]phenyl}-1H-pyrrolo[2,3-b]pyridine-3-carboxamide], the melting point was in the range of 280 to 283 °C. The IC50 in data set [1] was less than 500 nM.

In turn, `NC(=O)c1c(-c2ccc(S(=O)(=O)NC3(C(F)(F)F)CC3)cn2)n(C2CCCCC2)c2ncc(C(F)(F)F)cc12` [Cpd 440, 1-cyclohexyl-5-(trifluoromethyl)-2-(5-{[1-(trifluoromethyl)cyclopropyl]sulfamoyl}pyridin-2-yl)-1H-pyrrolo[2,3-b]pyridine-3-carboxamide] gave a melting point of 272 to 275 °C. The compound also registered an IC50 in data set [1] of less than 500 nM.

Regarding `NC(=O)c1c(-c2ccc(S(=O)(=O)NC3(C(F)(F)F)CC3)cc2)n(C2CCCCC2)c2ncc(C(F)(F)F)cc12` [Cpd 441, 1-cyclohexyl-5-(trifluoromethyl)-2-(4-{[1-(trifluoromethyl)cyclopropyl]sulfamoyl}phenyl)-1H-pyrrolo[2,3-b]pyridine-3-carboxamide], the melting point is 303 to 306 °C. The compound further gave an IC50 in data set [1] of less than 500 nM.

`CC1(NS(=O)(=O)c2ccc(-c3c(C(N)=O)c4cc(C(F)(F)F)cnc4n3C3CCCCC3)cc2)CC1` [Cpd 442, 1-cyclohexyl-2-{4-[(1-methylcyclopropyl)sulfamoyl]phenyl}-5-(trifluoromethyl)-1H-pyrrolo[2,3-b]pyridine-3-carboxamide] returned a melting point of 284 to 286 °C. Also, in data set [1], the IC50 was less than 500 nM.

In the case of `CC(C)(C)NS(=O)(=O)c1ccc(-c2c(C(N)=O)c3cc(C(F)(F)F)cnc3n2C2CCCCC2)cc1` [Cpd 443, 2-[4-(tert-butylsulfamoyl)phenyl]-1-cyclohexyl-5-(trifluoromethyl)-1H-pyrrolo[2,3-b]pyridine-3-carboxamide], the melting point fell in the range of 290 to 292 °C. Moreover, the 50% inhibitory concentration (IC50) in data set [1] was less than 500 nM.

As to `C[C@@H](NS(=O)(=O)c1ccc(-c2c(C(N)=O)c3cc(C(F)(F)F)cnc3n2C2CCCCC2)cc1)C(F)(F)F` [Cpd 444, 1-cyclohexyl-5-(trifluoromethyl)-2-(4-{[(2R)-1,1,1-trifluoropropan-2-yl]sulfamoyl}phenyl)-1H-pyrrolo[2,3-b]pyridine-3-carboxamide], the melting point lay in the range of 285 to 287 °C. In data set [1], this compound returned an IC50 of less than 500 nM.

For the compound `CC(C)S(=O)(=O)Nc1ccc(-c2c(C(N)=O)c3cc(C(F)(F)F)cnc3n2C2CCCCC2)cc1` [Cpd 446, 1-cyclohexyl-2-{4-[(propan-2-ylsulfonyl)amino]phenyl}-5-(trifluoromethyl)-1H-pyrrolo[2,3-b]pyridine-3-carboxamide], the melting point fell in the range of 203 to 205 °C. In data set [1], this compound showed an IC50 of less than 500 nM.

`CC1(S(=O)(=O)Nc2ccc(-c3c(C(N)=O)c4cc(C(F)(F)F)cnc4n3C3CCCCC3)cc2)CC1` [Cpd 447, 1-cyclohexyl-2-(4-{[(1-methylcyclopropyl)sulfonyl]amino}phenyl)-5-(trifluoromethyl)-1H-pyrrolo[2,3-b]pyridine-3-carboxamide]: the melting point is 268 to 270 °C. In addition, the IC50 in data set [1] was less than 500 nM.

With `NC(=O)c1c(-c2ccc(NS(=O)(=O)C3CC3)cc2)n(C2CCCCC2)c2ncc(C(F)(F)F)cc12` [Cpd 448, 1-cyclohexyl-2-{4-[(cyclopropylsulfonyl)amino]phenyl}-5-(trifluoromethyl)-1H-pyrrolo[2,3-b]pyridine-3-carboxamide], the melting point lay within 220 to 222 °C. For the same compound, the IC50 in data set [1] lay within 500 to 2000 nM.

Take `NC(=O)c1c(-c2ccc(NS(=O)(=O)C3CCC3)cc2)n(C2CCCCC2)c2ncc(C(F)(F)F)cc12` [Cpd 449, 2-{4-[(cyclobutylsulfonyl)amino]phenyl}-1-cyclohexyl-5-(trifluoromethyl)-1H-pyrrolo[2,3-b]pyridine-3-carboxamide]: the melting point is 256 to 258 °C. In data set [1], this compound returned a concentration for half-maximal inhibition (IC50) of 500 to 2000 nM.

`Cc1cnc2c(c1)c(C#N)c(-c1ccc(S(=O)(=O)N[C@@H](C)C(F)(F)F)cn1)n2-c1nccs1` [Cpd 450, 6-[3-cyano-5-methyl-1-(1,3-thiazol-2-yl)-1H-pyrrolo[2,3-b]pyridin-2-yl]-N-[(2S)-1,1,1-trifluoropropan-2-yl]pyridine-3-sulfonamide] gave a melting point of 208 to 210 °C. Also, in data set [1], the half-inhibitory concentration (IC50) was less than 500 nM.

`C[C@H](NS(=O)(=O)c1ccc(-c2c(C#N)c3cc(C(F)F)cnc3n2C2CCC2)nc1)C(F)(F)F` [Cpd 452, 6-[3-cyano-1-cyclobutyl-5-(difluoromethyl)-1H-pyrrolo[2,3-b]pyridin-2-yl]-N-[(2S)-1,1,1-trifluoropropan-2-yl]pyridine-3-sulfonamide] gave a melting point of 158 to 159 °C. In data set [1], the IC50 is less than 500 nM.

`C[C@H](NS(=O)(=O)c1ccc(-c2c(C#N)c3cc(C(F)F)cnc3n2C2CCC2)cc1)C(F)(F)F` [Cpd 453, 4-[3-cyano-1-cyclobutyl-5-(difluoromethyl)-1H-pyrrolo[2,3-b]pyridin-2-yl]-N-[(2S)-1,1,1-trifluoropropan-2-yl]benzenesulfonamide]: the melting point lay in the range of 203 to 205 °C. In data set [1], this compound registered an IC50 of less than 500 nM.

Consider `C[C@H](NS(=O)(=O)c1cnc(-c2c(C#N)c3cc(C(F)F)cnc3n2C2CCC2)nc1)C(F)(F)F` [Cpd 454, 2-[3-cyano-1-cyclobutyl-5-(difluoromethyl)-1H-pyrrolo[2,3-b]pyridin-2-yl]-N-[(2S)-1,1,1-trifluoropropan-2-yl]pyrimidine-5-sulfonamide], for which the melting point fell in the range of 155 to 156 °C. Also, the IC50 in data set [1] is less than 500 nM.
